Results on two compounds are retold here after article PMC4449328 (European neuropsychopharmacology : the journal of the …, 2014).

Test [1] has as its target T1, D3 receptor (Homo sapiens, UniProt P35462). To be noted: read-out: Ki±SEM; binding data previously reported; ref Newman et al. (2003); cited from earlier work.
In a further test the target is D3 dopamine receptor (Homo sapiens, UniProt P35462). In words: β-arrestin recruitment assay. The format is cell-based. Background: Recruitment of arrestin is a read-out of receptor activation apart from second messengers.
Chain of D3 dopamine receptor (P35462 whole entry): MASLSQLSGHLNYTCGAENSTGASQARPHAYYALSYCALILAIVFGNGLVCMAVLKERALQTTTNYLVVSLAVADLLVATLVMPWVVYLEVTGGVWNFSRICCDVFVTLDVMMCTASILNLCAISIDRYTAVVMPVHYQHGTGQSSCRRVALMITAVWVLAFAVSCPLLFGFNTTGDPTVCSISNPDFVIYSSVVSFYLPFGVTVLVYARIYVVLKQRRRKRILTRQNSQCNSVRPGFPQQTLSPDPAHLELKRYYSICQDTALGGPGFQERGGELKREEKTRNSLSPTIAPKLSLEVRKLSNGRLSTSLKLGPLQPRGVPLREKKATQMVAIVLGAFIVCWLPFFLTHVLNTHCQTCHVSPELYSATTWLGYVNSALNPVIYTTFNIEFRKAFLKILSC
Test [2] deals with T1, D3 receptor. In words: [3H]methylspiperone saturation binding. To be noted: 1 μM sulpiride (Fig. 6).

T1 sequence (P35462 whole entry): as above

The Ki is a dissociation constant, usually derived from enzyme kinetics or from competition with a known ligand. Consider `O=C(NCCCCN1CCN(c2cccc(Cl)c2Cl)CC1)c1ccc(-c2ccccn2)cc1` [CJB 090], for which the Ki on D3 receptor [1] was 600 ± 200 pM.
Turning to `CCN1CCCC1CNC(=O)c1cc(S(N)(=O)=O)ccc1OC` (stereo not shown) [sulpiride], the “Hill slope of Schild plot” value is 1.04±0.05 at D3 dopamine receptor (curve-shift of dopamine concentration response (Fig. 7), n=3–5, mean±SEM) and 1.04±0.05 at D3 dopamine receptor (curve-shift of dopamine concentration response (Fig. 11)). In addition, the “Bmax of [3H]methylspiperone in presence of compound” value on D3 receptor [2] is reported as 6,190 fmol/mg.
